Measured values published in publication PMC9299836 (eLife, 2022).

Target: mGluR2 (Mus musculus, UniProt Q14BI2, A548F)
Experiment: smFRET of azi-CRD: cross-correlation of donor and acceptor intensities (CRD dynamics) and HMM transition density plots;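 further: single detergent-solubilized receptors captured on antibody-coated flow cells via C-terminal FLAG-tag, imaged by smFRET, donor and acceptor intensity traces from three independent biological replicates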
Settings: for CRD dynamics by cross-correlation of donor and acceptor intensities: azi-CRD

mGluR2, sequence (Q14BI2 19-872 A548F): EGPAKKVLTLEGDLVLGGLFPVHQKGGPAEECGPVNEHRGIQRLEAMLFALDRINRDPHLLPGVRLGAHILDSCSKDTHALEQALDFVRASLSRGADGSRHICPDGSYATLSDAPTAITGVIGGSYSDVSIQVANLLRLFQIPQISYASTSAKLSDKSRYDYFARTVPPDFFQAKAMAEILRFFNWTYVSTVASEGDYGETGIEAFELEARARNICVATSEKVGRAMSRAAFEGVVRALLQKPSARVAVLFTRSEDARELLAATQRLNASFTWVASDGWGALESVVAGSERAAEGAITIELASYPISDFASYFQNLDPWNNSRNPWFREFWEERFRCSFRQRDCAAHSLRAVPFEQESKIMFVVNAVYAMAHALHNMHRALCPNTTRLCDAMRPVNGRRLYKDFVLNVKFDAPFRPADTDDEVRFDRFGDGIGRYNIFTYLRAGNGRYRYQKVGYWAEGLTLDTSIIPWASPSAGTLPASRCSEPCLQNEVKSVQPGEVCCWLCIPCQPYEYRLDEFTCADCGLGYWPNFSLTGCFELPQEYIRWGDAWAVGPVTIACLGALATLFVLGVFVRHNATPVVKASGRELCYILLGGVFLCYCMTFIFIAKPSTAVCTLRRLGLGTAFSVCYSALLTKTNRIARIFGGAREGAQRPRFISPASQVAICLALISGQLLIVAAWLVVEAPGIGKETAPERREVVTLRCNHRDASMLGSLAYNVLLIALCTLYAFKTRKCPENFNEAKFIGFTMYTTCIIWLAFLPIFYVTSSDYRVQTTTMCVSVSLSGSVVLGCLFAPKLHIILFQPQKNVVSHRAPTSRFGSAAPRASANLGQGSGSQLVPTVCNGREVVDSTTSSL

MNI-137
Cross Correlation, Mean (0μM Glutamate + GPT/Pyruvate + 5μM MNI-137, Time 0.2 s): -0.028 | Cross Correlation, Mean (0μM Glutamate + GPT/Pyruvate + 5μM MNI-137, Time 0.25 s): -0.03232 | Cross Correlation, Mean (0μM Glutamate + GPT/Pyruvate + 5μM MNI-137, Time 0.3 s): -0.03245 | Cross Correlation, Mean (0μM Glutamate + GPT/Pyruvate + 5μM MNI-137, Time 0.35 s): -0.03285 | Cross Correlation, Mean (0μM Glutamate + GPT/Pyruvate + 5μM MNI-137, Time 0.4 s): -0.02992 | Cross Correlation, Mean (0μM Glutamate + GPT/Pyruvate + 5μM MNI-137, Time 0.45 s): -0.02563 | Cross Correlation, Mean (0μM Glutamate + GPT/Pyruvate + 5μM MNI-137, Time 0.5 s): -0.0232 | Cross Correlation, Mean (0μM Glutamate + GPT/Pyruvate + 5μM MNI-137, Time 0.55 s): -0.0254 | Cross Correlation, Mean (0μM Glutamate + GPT/Pyruvate + 5μM MNI-137, Time 0.6 s): -0.02539 | Cross Correlation, Mean (0μM Glutamate + GPT/Pyruvate + 5μM MNI-137, Time 0.65 s): -0.02363 | Cross Correlation, Mean (0μM Glutamate + GPT/Pyruvate + 5μM MNI-137, Time 0.7 s): -0.02361 | Cross Correlation, Mean (0μM Glutamate + GPT/Pyruvate + 5μM MNI-137, Time 0.8 s): -0.02074 | Cross Correlation, Mean (0μM Glutamate + GPT/Pyruvate + 5μM MNI-137, Time 0.85 s): -0.0233 | Cross Correlation, Mean (0μM Glutamate + GPT/Pyruvate + 5μM MNI-137, Time 0.9 s): -0.02522 | Cross Correlation, Mean (0μM Glutamate + GPT/Pyruvate + 5μM MNI-137, Time 0.95 s): -0.02254 | Cross Correlation, Mean (0μM Glutamate + GPT/Pyruvate + 5μM MNI-137, Time 1 s): -0.02263 | Cross Correlation, Mean (0μM Glutamate + GPT/Pyruvate + 5μM MNI-137, Time 1.05 s): -0.01654 | Cross Correlation, Mean (0μM Glutamate + GPT/Pyruvate + 5μM MNI-137, Time 1.1 s): -0.01694 | Cross Correlation, Mean (0μM Glutamate + GPT/Pyruvate + 5μM MNI-137, Time 1.15 s): -0.0245 | Cross Correlation, Mean (0μM Glutamate + GPT/Pyruvate + 5μM MNI-137, Time 1.2 s): -0.02011 | Cross Correlation, Mean (0μM Glutamate + GPT/Pyruvate + 5μM MNI-137, Time 1.25 s): -0.02479 | Cross Correlation, Mean (0μM Glutamate + GPT/Pyruvate + 5μM MNI-137, Time 1.3 s): -0.01941 | Cross Correlation, Mean (0μM Glutamate + GPT/Pyruvate + 5μM MNI-137, Time 1.35 s): -0.01897 | Cross Correlation, Mean (0μM Glutamate + GPT/Pyruvate + 5μM MNI-137, Time 1.4 s): -0.02381 | Cross Correlation, Mean (0μM Glutamate + GPT/Pyruvate + 5μM MNI-137, Time 1.45 s): -0.01493 | Cross Correlation, Mean (0μM Glutamate + GPT/Pyruvate + 5μM MNI-137, Time 1.5 s): -0.01697 | Cross Correlation, Mean (0μM Glutamate + GPT/Pyruvate + 5μM MNI-137, Time 1.6 s): -0.01709 | Cross Correlation, Mean (0μM Glutamate + GPT/Pyruvate + 5μM MNI-137, Time 1.65 s): -0.01348 | Cross Correlation, Mean (0μM Glutamate + GPT/Pyruvate + 5μM MNI-137, Time 1.7 s): -0.01427 | Cross Correlation, Mean (0μM Glutamate + GPT/Pyruvate + 5μM MNI-137, Time 1.75 s): -0.0161 | Cross Correlation, Mean (0μM Glutamate + GPT/Pyruvate + 5μM MNI-137, Time 1.8 s): -0.01106 | Cross Correlation, Mean (0μM Glutamate + GPT/Pyruvate + 5μM MNI-137, Time 1.85 s): -0.00832 | Cross Correlation, Mean (0μM Glutamate + GPT/Pyruvate + 5μM MNI-137, Time 1.9 s): -0.01466 | Cross Correlation, Mean (15μM Glutamate + 5μM MNI-137, Time 0.2 s): -0.09437 | Cross Correlation, Mean (15μM Glutamate + 5μM MNI-137, Time 0.25 s): -0.08281 | Cross Correlation, Mean (15μM Glutamate + 5μM MNI-137, Time 0.3 s): -0.0732 | Cross Correlation, Mean (15μM Glutamate + 5μM MNI-137, Time 0.35 s): -0.06697 | Cross Correlation, Mean (15μM Glutamate + 5μM MNI-137, Time 0.4 s): -0.05965 | Cross Correlation, Mean (15μM Glutamate + 5μM MNI-137, Time 0.45 s): -0.05857 | Cross Correlation, Mean (15μM Glutamate + 5μM MNI-137, Time 0.5 s): -0.05707 | Cross Correlation, Mean (15μM Glutamate + 5μM MNI-137, Time 0.55 s): -0.05428 | Cross Correlation, Mean (15μM Glutamate + 5μM MNI-137, Time 0.6 s): -0.04785 | Cross Correlation, Mean (15μM Glutamate + 5μM MNI-137, Time 0.65 s): -0.04876 | Cross Correlation, Mean (15μM Glutamate + 5μM MNI-137, Time 0.7 s): -0.04192 | Cross Correlation, Mean (15μM Glutamate + 5μM MNI-137, Time 0.75 s): -0.0438 | Cross Correlation, Mean (15μM Glutamate + 5μM MNI-137, Time 0.8 s): -0.04286 | Cross Correlation, Mean (15μM Glutamate + 5μM MNI-137, Time 0.85 s): -0.04147 | Cross Correlation, Mean (15μM Glutamate + 5μM MNI-137, Time 0.9 s): -0.0389 | Cross Correlation, Mean (15μM Glutamate + 5μM MNI-137, Time 0.95 s): -0.03855 | Cross Correlation, Mean (15μM Glutamate + 5μM MNI-137, Time 1 s): -0.03542 | Cross Correlation, Mean (15μM Glutamate + 5μM MNI-137, Time 1.05 s): -0.03118 | Cross Correlation, Mean (15μM Glutamate + 5μM MNI-137, Time 1.1 s): -0.03249 | Cross Correlation, Mean (15μM Glutamate + 5μM MNI-137, Time 1.15 s): -0.02794 | Cross Correlation, Mean (15μM Glutamate + 5μM MNI-137, Time 1.2 s): -0.03365 | Cross Correlation, Mean (15μM Glutamate + 5μM MNI-137, Time 1.25 s): -0.03207 | Cross Correlation, Mean (15μM Glutamate + 5μM MNI-137, Time 1.3 s): -0.02844 | Cross Correlation, Mean (15μM Glutamate + 5μM MNI-137, Time 1.35 s): -0.02868 | Cross Correlation, Mean (15μM Glutamate + 5μM MNI-137, Time 1.4 s): -0.02437 | Cross Correlation, Mean (15μM Glutamate + 5μM MNI-137, Time 1.45 s): -0.02342 | Cross Correlation, Mean (15μM Glutamate + 5μM MNI-137, Time 1.55 s): -0.02529 | Cross Correlation, Mean (15μM Glutamate + 5μM MNI-137, Time 1.6 s): -0.02454 | Cross Correlation, Mean (15μM Glutamate + 5μM MNI-137, Time 1.65 s): -0.02035 | Cross Correlation, Mean (15μM Glutamate + 5μM MNI-137, Time 1.75 s): -0.02381 | Cross Correlation, Mean (15μM Glutamate + 5μM MNI-137, Time 1.8 s): -0.02039 | Cross Correlation, Mean (15μM Glutamate + 5μM MNI-137, Time 1.85 s): -0.02364 | Cross Correlation, Mean (15μM Glutamate + 5μM MNI-137, Time 1.9 s): -0.02018 | Cross Correlation, Mean (15μM Glutamate + 5μM MNI-137, Time 1.95 s): -0.01877 | Cross Correlation, Mean (1000μM Glutamate + 5μM MNI-137, Time 0.2 s): -0.2112 | Cross Correlation, Mean (1000μM Glutamate + 5μM MNI-137, Time 0.25 s): -0.1919 | Cross Correlation, Mean (1000μM Glutamate + 5μM MNI-137, Time 0.3 s): -0.1758 | Cross Correlation, Mean (1000μM Glutamate + 5μM MNI-137, Time 0.35 s): -0.1629 | Cross Correlation, Mean (1000μM Glutamate + 5μM MNI-137, Time 0.4 s): -0.1514 | Cross Correlation, Mean (1000μM Glutamate + 5μM MNI-137, Time 0.45 s): -0.1426 | Cross Correlation, Mean (1000μM Glutamate + 5μM MNI-137, Time 0.5 s): -0.1307 | Cross Correlation, Mean (1000μM Glutamate + 5μM MNI-137, Time 0.55 s): -0.1241 | Cross Correlation, Mean (1000μM Glutamate + 5μM MNI-137, Time 0.6 s): -0.1177 | Cross Correlation, Mean (1000μM Glutamate + 5μM MNI-137, Time 0.65 s): -0.1093 | Cross Correlation, Mean (1000μM Glutamate + 5μM MNI-137, Time 0.7 s): -0.1013 | Cross Correlation, Mean (1000μM Glutamate + 5μM MNI-137, Time 0.75 s): -0.09952 | Cross Correlation, Mean (1000μM Glutamate + 5μM MNI-137, Time 0.8 s): -0.09295 | Cross Correlation, Mean (1000μM Glutamate + 5μM MNI-137, Time 0.85 s): -0.08726 | Cross Correlation, Mean (1000μM Glutamate + 5μM MNI-137, Time 0.9 s): -0.08538 | Cross Correlation, Mean (1000μM Glutamate + 5μM MNI-137, Time 0.95 s): -0.07938 | Cross Correlation, Mean (1000μM Glutamate + 5μM MNI-137, Time 1 s): -0.07503 | Cross Correlation, Mean (1000μM Glutamate + 5μM MNI-137, Time 1.05 s): -0.07213 | Cross Correlation, Mean (1000μM Glutamate + 5μM MNI-137, Time 1.1 s): -0.06374 | Cross Correlation, Mean (1000μM Glutamate + 5μM MNI-137, Time 1.15 s): -0.06369 | Cross Correlation, Mean (1000μM Glutamate + 5μM MNI-137, Time 1.2 s): -0.0627 | Cross Correlation, Mean (1000μM Glutamate + 5μM MNI-137, Time 1.3 s): -0.05443 | Cross Correlation, Mean (1000μM Glutamate + 5μM MNI-137, Time 1.35 s): -0.05075 | Cross Correlation, Mean (1000μM Glutamate + 5μM MNI-137, Time 1.4 s): -0.05008 | Cross Correlation, Mean (1000μM Glutamate + 5μM MNI-137, Time 1.45 s): -0.0474 | Cross Correlation, Mean (1000μM Glutamate + 5μM MNI-137, Time 1.5 s): -0.04472 | Cross Correlation, Mean (1000μM Glutamate + 5μM MNI-137, Time 1.55 s): -0.04463 | Cross Correlation, Mean (1000μM Glutamate + 5μM MNI-137, Time 1.65 s): -0.03966 | Cross Correlation, Mean (1000μM Glutamate + 5μM MNI-137, Time 1.7 s): -0.03894 | Cross Correlation, Mean (1000μM Glutamate + 5μM MNI-137, Time 1.75 s): -0.03942 | Cross Correlation, Mean (1000μM Glutamate + 5μM MNI-137, Time 1.8 s): -0.03907 | Cross Correlation, Mean (1000μM Glutamate + 5μM MNI-137, Time 1.9 s): -0.0321 | Cross Correlation, Mean (1000μM Glutamate + 5μM MNI-137, Time 1.95 s): -0.034 | CRD dynamics by cross-correlation of donor and acceptor intensities (5 μM modulator with 15 μM and 1 mM glutamate): glutamate concentration-dependent increase in the CRD dynamics | CRD dynamics by cross-correlation of donor and acceptor intensities (5 μM modulator, absence of glutamate): reduced CRD dynamics
